In patent publication US6759429B2, “Pyrrole derivatives” (Sumitomo Pharmaceuticals Co., Ltd., priority 2000, dated 2004) one finds inhibition data, which are given here for one compound.

In the assay the test system is TGF-β. In words: Effects on the extracellular matrix production by TGF-β (proteoglycan production in fibroblast). The assay is classed as cell-based. The conditions noted are these: Rattus norvegicus, NRK-49F cells, 3 ng/ml TGF-β, 24 h, [35S]-proteoglycan radioactivity, read-out: TGF-β inhibitory rate (%). The method, then:
Effects on the Extracellular Matrix Production by TGF-β The effect of the compounds of Examples on the production of proteoglycan when TGF-β was added to fibroblast was evaluated. NRK-49F cells (rat fibroblast) were cultured in Dulbecco's Modified Eagle Medium (DMEM: manufactured by GIBCO) containing 10% bovine serum, and used in this experiment. The cells were put into a 96-well plate in an amount of 2.5×10^4 cells/100 μl/well. On the next day, the medium in the plate was exchanged to the DMEM medium containing 3 ng/ml of TGF-β (manufactured by Nacalai Tesque, Inc.), 0.5 μCi/well of [^35S]-Na2SO4, and a test compound. […] The gel after electrophoresis was dried with a gel drier, and exposed to an imaging plate, which was analyzed with […] (manufactured by Fuji Photo Film). The radioactivity of proteoglycan to be electrophoresed was measured, and the TGF-β inhibitory rate was calculated by the following equation. TGF-β Inhibitory rate (%)=(A−B)×100/(A−C) A: Radioactivity in the presence of TGF-β without a test compound B: Radioactivity in the presence of TGF-β and a test compound C: Radioactivity in the absence of TGF-β and a test compound The TGF-β inhibitory rates (%) of the test compound at concentrations of 3 μM and 10 μM are shown in Table 1.

Turning to `COC(=O)c1cc(Cl)ccc1/C=C/Cn1cccc1C(=O)c1ccc(O)cc1` [Example 103], the inhibition at 3 µM (test compound 3 μM) came out at 55%. Where the note is “test compound 10 μM”, the inhibition at 10 µM was determined as 90%.
